# In US5723496A, “Method for prevention and treatment of harmful effects of intracellular acidosis” (priority 1995, dated 1998):
# Values joined by “and” are separate entries in the source; they are usually repeats but may differ in a detail not shown here. Equal values may be shown once. “Also recorded” adds a separate entry of the source. Where a name gives a salt, the structure may show the parent alone.
# Tests used:
# [1] = system: mouse brain intracellular acidosis; assay: in vivo brain pH before and after 2 min anoxia (Example 4); parameters: species or system mice; conditions: for brain pH after anoxia / brain pH before anoxia: mice, 3.75 mmole/kg/day i.p., 14 days; for brain pH after anoxia: 2 min anoxia
# Protocol: Using the same experimental procedure as in Example 3, in vivo pH buffering property of guanidinoethanesulfonic acid against the in vivo intracellular acidosis and pH depression caused by anoxia was evaluated.
# Aqueous solution of guanidinoethanesulfonic acid (0.3M) was administered daily intraperitoneally to five mice at a dose of 3.75 mmole/kg/day for a period of 14 days. The same number of control mice (5) received intraperitoneal administration of physiological saline solution at a dose of 0.25 ml/animal/day for the same period (14 days).
# After the 14 days of administration period of GES or saline, animals were placed in a chamber filled with pure 100% nitrogen for 2 minutes to produce the anoxia state. The pH of the brain was measured in vivo before and after the anoxia by the technique of ^31 P spectroscopy using Omega-7 Tesla Magnetic Resonance Spectrophotometer.
# [2] = system: CA1 neurons; assay: neuronal density in CA1 region, gerbil forebrain ischemia model; format: in vivo
# Protocol: The gerbil forebrain ischemia model of Kirino (REFERENCE, please) was employed as follows.
# Animals were divided into 4 groups. Two groups of 5 animals each served as control.
# First control group was administered daily for fourteen days 0.25 ml of saline. No ischemia was induced.
# Second control group was administered 0.25 ml of 625 mg/kg of GES daily for fourteen days. No ischemia was induced.
# Third group of ten animals was control ischemia group. This group was administered with 0.25 ml of saline daily for 14 days. Then, the ischemia was induced.
# Fourth group of 16 animals was administered 0.25 ml of 625 mg/kg of GES for 14 days, followed by induced ischemia.
# Animals were anesthetized with 1% halothane, 70% nitrous oxide, and 29% oxygen. The subscalp and rectal temperature were monitored and kept constant at 37° C. using a controlled heating system starting 30 minutes prior to one hour after induction of ischemia. Ischemia in experimental groups (saline and GES ischemia groups) was induced by occlusion of the carotid arteries bilaterally for 5 minutes using small aneurysm clips. Animals in the two control groups (saline and GES controls) received sham surgery but no ischemia was induced.
# Seven days after induced ischemia and recirculation, animals were perfused transcardially with 50 cc of normal saline followed by 500 cc of 5% paraformaldehyde in 0.1M phosphate buffer (pH=7.3), at 100 cm H2 O, under deep pentobarbital anesthesia. Brains were removed and fixed in the same buffered paraformaldehyde solution for 14 days. Sections (6 μm thick) containing the dorsal hippocampus at the level 1.4-1.7 mm posterior to the bregma were prepared on a cryostat from paraffin embedded brain. Sections were stained with hematoxylin and eosin and examined in a double blinded fashion. The number of viable neurons within the CA1 region was counted using an Olympus BH-2 microscope at ×400. The results represents the average of the counts.
# [3] = system: adult mice exposed to anoxia; assay: survival of adult mice exposed to anoxia; format: in vivo, Adult Swiss mice; parameters: mortality, 2.5 minutes of anoxia / protection against 2.5 minutes anoxia: concentration or dose not given beside the values; conditions: for protection against anoxia / survival (in words): sulfate
# Protocol: Adult Swiss mice (BK-1 males, 20 g) purchased from Bantin & Kingman, Fremont, Calif. were used. Each batch consisted of 10 mice. Within each batch five mice were selected randomly as experimental animals and the remaining five as controls. Experimental mice received daily intraperitoneal injections of 0.25 ml of GES (50 mg/ml) for 14 days.
# At day 14, all mice within the same batch (5 experimental and 5 each of the […]) were placed in a specially designed chamber (26.5×24.5×21.0 cm). Anoxia/hypoxia was produced by infusion of pure nitrogen gas ([…]) into the chamber for 2.5 or 2.75 minutes. Anoxia/hypoxia was reversed immediately after these intervals by removing the chamber and placing the mice in a room air environment.
# The results are shown in FIG. 1 and discussed in detail above.
# [4] = system: gerbil brain; assay: intracellular pH of gerbil brain (31P NMR); format: in vivo; conditions: mean and standard deviation; p<0.05 (t-test) vs saline 7.17; sulfate
# Protocol: Intracellular pH measurement of gerbil brain was performed non-invasively using ^31 P nuclear magnetic resonance (NMR) in vivo spectroscopy. AGE Omega CSI-7T (useful bore 120 mm, horizontal, 7T) was used.
# Gerbils were divided into […] of 7 animals each. Control group received saline. Saline ischemia group received saline. GES group received GES. Gerbils were anesthetized with pentobarbital, 50 mg/kg. Gerbils were held in a padded holder which was placed in the probe chamber containing a one turn round surface coil (5 mm diameter) tunable to the resonance frequency of proton and ^31 P. To avoid signal contamination, the scalp and temporal muscle were retracted. The body temperature was kept at 37° C. using a non-magnetic heating pad. Field homogeneity was maximized by skimming on tissue water proton signals. ^31 P spectra were obtained using a one pulse sequence at 121.67 MHz with a spectral width of 10K and stored into 4K memory blocks (recycle time 2.7 sec). The broad resonance with short T2 on ^31 P spectra was removed by the convolution difference technique. Line broadening of 30 Hz was applied as noise filter.
# [5] = listed as guanidinoethane sulfate
smiles,measurement,setting,value
"N=C(N)NCCS(=O)(=O)O [GES, guanidinoethane sulfate]",brain pH after anoxia,[1]; [5],7.05±0.05
same,brain pH before anoxia,[1]; [5],7.16±0.04
same,brain pH after anoxia,[1]; sulfate,7.05
same,brain pH before anoxia,[1]; sulfate,7.16
same,prevention of decrease in brain pH (in words),"[1]; p<0.05, listed as guanidinoethane sulfate",effectively protects the brain cell from the acidosis damage
same,prevention of decrease in brain pH (in words),"[1]; p<0.05, sulfate",significantly (p<0.05) prevented the decrease in the cellular pH
same,neuroprotection of CA1 neurons (in words),"[2]; 7 days after 5 min bilateral carotid occlusion, sulfate",significant nueroprotection on CA1 neurons; also recorded: Significantly higher neuronal density
same,"neuronal density in CA1 region, no ischemia","[2]; GES control group (n=5), sham surgery",249 ± 9.4 /mm
same,"CA1 neuronal density, ischemia",[2]; GES ischemia group,61.1±55.11 /mm
same,"neuronal density in CA1 region, ischemia","[2]; GES ischemia group (n=16), 5 min occlusion, 7 days, p<0.05",61.1 ± 55.1 /mm
same,protective activity by CA1 neuronal density vs saline ischemia,[2]; in vivo,four times higher
same,"mortality, 2.5 minutes of anoxia",[3]; 14 days i.p. pretreatment,zero
same,"mortality, 2.75 minutes of anoxia",[3]; 14 days i.p. pretreatment,20%
same,protection against 2.5 minutes anoxia,[3]; FIG. 1,100%
same,protection against anoxia / survival (in words),[3]; listed as sodium guanidinoethane sulfate,effectively prevent lactic acidosis caused by complete oxygen deficiency
same,protection against anoxia / survival (in words),[3],more effective than pretreatment with taurine or saline; also recorded: enhance the survival rate of mice exposed to anoxia; also recorded: significantly enhances the survival rate of adult mice exposed to anoxia
same,intracellular pH of gerbil brain,[4],7.26 and 7.25±0.07 and 7.25
